Source: article PMC10469817, “A novel UHPLC‒MS/MS method for quantitative analysis of zanubrutinib in rat plasma: application to an in vivo interaction study between zanubrutinib and triazole antifungal” (BMC Chemistry, 2023)
Like-named read-outs stand apart in the source and are kept apart here. Values belong to the molecule of their own block, whether it stands above or below them.

Tests used:
[1] = system: CYP3A4; parameters: method as in PMID 16205037, PMID 30477963; conditions: cited from earlier work
[2] = DDI study: pharmacokinetics of zanubrutinib in rats alone or with fluconazole / isavuconazole; assay type: in vivo, Sprague–Dawley (SD) rats; conditions: for AUC(0-inf) / AUC(0-t) / Cmax / Tmax / half-life / CL/F / MRT last / MRT inf / Vd/F: rat, plasma, po, zanubrutinib 30 mg/kg gavage, n = 6, mean ± SD; for CL/F: read-out: CLz/F (converted); for MRT last: read-out: MRT(0−t); for MRT inf: read-out: MRT(0−∞); for Vd/F: read-out: Vz/F; for time to peak: in h (unit assumed); for peak plasma concentration: in ng/mL; for area under the curve: in µg·h/L
Experimental: The separation procedures were processed using a Shim-pack velox C18 column (2.1 × 50 mm, 2.7 μm) at 40 degrees Celsius. The mobile phases were 0.1% formic acid-water and methanol. The gradient elution mode (each injection = 3 min) was applied as follows: the first 0-0.5 min was maintained at 10% methanol, followed by linearly increasing to 80% methanol (0.5–0.8 min) and keeping 80% methanol for 0.8–1.5 min. […] At the stage of the analysis process, the sample injection volume and flow rate were set as 2 µL and 0.4 mL/min, respectively.
Triple quadrupole mass spectrometry (Shimadzu Corp., Tokyo, Japan) was utilized for sample detection. The parameters for this procedure were set as follows: the detector voltage, heating block temperature, flow of atomizing gas, and drying gas were set as 4.5 kV, 400 °C, 3 L/min and 5 L/min, respectively. Multiple reaction monitoring (MRM) mode was performed to detect the precursor and product ions of the IS and analyte. The first and second signal strength product ions were applied to quantitation and qualification, respectively, to ensure the specificity of the detection. In addition, the retention times of the IS and analyte were also considered to further improve the detection specificity.
Eighteen SD rats were randomly split into three groups (Groups A-C). […] The same dose (0.5% CMC-Na) was administered to Group A (control group). After half an hour, each rat was treated with 30 mg/kg zanubrutinib. Thereafter, rat blood samples (0.3 mL) from the caudal vein at a series of time points (0.083, 0.5, 1, 2, 3, 4, 5, 6, 8, and 12 h) were collected in heparin tubes. The blood samples were centrifuged at 13,000 × g for 10 min at 4 °C, followed by separation of plasma and storage at -80 °C.
Prior to the experiment, the − 80 °C stored rat plasma samples were placed at room temperature for thawing. At the protein precipitation stage, 40 µL IS, 200 µL acetonitrile, and 100 µL plasma were collectively added to a 1.5 mL centrifuge tube, vortexed to mix thoroughly, and centrifuged at 12,000 × g for 10 min. Afterwards, 100 µL supernatant was transferred to a centrifuge tube and gently mixed with 100 µL ultrapure water for UHPLC–MS/MS analysis.

[3] = parameters: method as in PMID 31340982; conditions: cited from earlier work
[4] = system: CYP3A4; parameters: method as in PMID 34252374; conditions: in vitro experiments; to phenoxy phenyl hydroxylation metabolites; cited from earlier work
[5] = Stability of zanubrutinib in rat plasma under different storage conditions; assay type: in vitro ADME; conditions: for Stability in rat plasma, RE(%): n = 6
Experimental: Under a series of storage conditions, each concentration of rat plasma QC samples (2, 40 and 800 ng/mL) was evaluated in 6 replicates to explore the stability of the method. This experiment determines the stabilities of the QC samples during analyses and different storage conditions. […] The testing results with RSD% (< 15%) and RE% (± 15%) were considered stable.

[6] = system: IL-2-induced kinase (ITK); parameters: method as in PMID 31171645; conditions: compared to ibrutinib; cited from earlier work
[7] = parameters: method as in PMID 31875923; conditions: healthy volunteers, combined with itraconazole (CYP3A4 inhibitor); cited from earlier work
[8] = system: BTK; parameters: method as in PMID 31340982; conditions: peripheral blood mononuclear cells (PBMCs) and peripheral lymph nodes in patients with B-cell lymphoma; cited from earlier work
[9] = single administration of 320 mg
[10] = Sprague-Dawley, 30 mg/kg, rats, Group A: the control group (0.5% CMC-Na)
[11] = Sprague-Dawley, 30 mg/kg, rats, Group B: 20 mg/kg isavuconazole
[12] = Sprague-Dawley, 30 mg/kg, rats, Group C: 20 mg/kg fluconazole
[13] = rats, zanubrutinib (30 mg/kg) alone
[14] = rats, zanubrutinib (30 mg/kg) coadministered with fluconazole (20 mg/kg)
[15] = rats, zanubrutinib (30 mg/kg) coadministered with isavuconazole (20 mg/kg)

SMILES: OC(Cn1cncn1)(Cn1cncn1)c1ccc(F)cc1F [fluconazole]
CYP3A4 inhibition [1]: CYP3A4 enzyme inhibitors

inhibitory effect on the metabolism of zanubrutinib ([2]; rats, 20 mg/kg antifungal by gavage half an hour before 30 mg/kg zanubrutinib): obvious inhibitory effect
SMILES: C[C@@H](c1nc(-c2ccc(C#N)cc2)cs1)[C@](O)(Cn1cncn1)c1cc(F)ccc1F [isavuconazole]
CYP3A4 inhibition [1]: CYP3A4 enzyme inhibitors

Stability in rat plasma, RE(%) ([5]; 4 °C (24 h), 2 ng/mL): 1.3% | Stability in rat plasma, RE(%) ([5]; 4 °C (24 h), 40 ng/mL): 1.4% | Stability in rat plasma, RE(%) ([5]; 4 °C (24 h), 800 ng/mL): 1.0% | Stability in rat plasma, RE(%) ([5]; -80 °C (long-term), 2 ng/mL): 2.5% | Stability in rat plasma, RE(%) ([5]; -80 °C (long-term), 40 ng/mL): 1.5% | Stability in rat plasma, RE(%) ([5]; -80 °C (long-term), 800 ng/mL): 4.0% | Stability in rat plasma, RE(%) ([5]; Room temperature (4 h), 2 ng/mL): -0.2% | Stability in rat plasma, RE(%) ([5]; Room temperature (4 h), 40 ng/mL): -1.4% | Stability in rat plasma, RE(%) ([5]; Room temperature (4 h), 800 ng/mL): -2.3% | Stability in rat plasma, RE(%) ([5]; Three freeze‒thaw, 2 ng/mL): -1.8% | Stability in rat plasma, RE(%) ([5]; Three freeze‒thaw, 40 ng/mL): 2.6% | Stability in rat plasma, RE(%) ([5]; Three freeze‒thaw, 800 ng/mL): -0.4% | stability in plasma under the assessed storage conditions ([5]; room temperature, 4 degrees Celsius refrigeration, freeze thawing, cryopreservation for long-term): stable | concentration at 1 h ([2]; Sprague-Dawley, 30 mg/kg, a rat plasma sample obtained 1 h after oral administration of zanubrutinib): 230 ng/mL | AUC(0-inf) [2, 10]: 1090 ± 44.2 ng·h/mL | AUC(0-t) [2, 10]: 1080 ± 43.8 ng·h/mL | Cmax [2, 10]: 332 ± 52.8 ng/mL | Tmax [2, 10]: 1.83 ± 0.41 h | half-life [2, 10]: 1.34 ± 0.11 h | CL/F [2, 10]: 461 mL/min/kg | MRT last [2, 10]: 2.71 ± 0.1 h | MRT inf [2, 10]: 2.76 ± 0.09 h | Vd/F [2, 10]: 53.2 ± 3.64 L/kg | AUC(0-inf) [2, 11]: 1270 ± 78 ng·h/mL | AUC(0-t) [2, 11]: 1270 ng·h/mL | Cmax [2, 11]: 396 ± 37.2 ng/mL | Tmax [2, 11]: 2 h | half-life [2, 11]: 1.42 ± 0.56 h | CL/F [2, 11]: 394 mL/min/kg | MRT last [2, 11]: 2.76 ± 0.07 h | MRT inf [2, 11]: 2.82 ± 0.09 h | Vd/F [2, 11]: 49 ± 21.1 L/kg | AUC(0-inf) [2, 12]: 1730 ± 218 ng·h/mL | AUC(0-t) [2, 12]: 1720 ± 219 ng·h/mL | Cmax [2, 12]: 495 ± 131 ng/mL | Tmax [2, 12]: 2.17 ± 0.41 h | half-life [2, 12]: 1.37 ± 0.16 h | CL/F [2, 12]: 293 mL/min/kg | MRT last [2, 12]: 2.95 ± 0.14 h | MRT inf [2, 12]: 3 ± 0.14 h | Vd/F [2, 12]: 34.8 ± 6.57 L/kg | time to peak [2, 13]: 1.83 ± 0.41 | peak plasma concentration [2, 13]: 332.00 ± 52.79 | area under the curve [2, 13]: 1081.67 ± 43.81 | time to peak [2, 14]: 2.17 ± 0.41 | peak plasma concentration [2, 14]: 494.51 ± 130.68 | area under the curve [2, 14]: 1721.61 ± 219.36 | time to peak [2, 15]: 2.00 ± 0.00 | peak plasma concentration [2, 15]: 396.05 ± 37.19 | area under the curve [2, 15]: 1267.55 ± 79.35
SMILES: C=CC(=O)N1CCC([C@@H]2CCNc3c(C(N)=O)c(-c4ccc(Oc5ccccc5)cc4)nn32)CC1 [zanubrutinib]
time of peak concentration (Tmax) ([3]; patients with malignant lymphoma, oral administration): approximately 2 h | mean half-life (t1/2) [3, 9]: approximately 4 h | mean peak concentration (Cmax) [3, 9]: 658 ng/mL | enzyme primarily metabolizing zanubrutinib [4]: CYP3A4 | times lower at inhibiting IL-2-induced kinase (ITK) than ibrutinib [6]: more than 20 times | AUC increased to (combined with itraconazole) [7]: 143% | Cmax increased to (combined with itraconazole) [7]: 154% | efficacy of BTK inhibition [8]: ~100%
